Measurements as given in patent publication US20260118345A1, “METHOD OF EVALUATING INTERCELLULAR INTERACTIONS IN NEUROINFLAMMATION” (FUJIFILM Corporation, priority 2023, published 2026).

Legend:
Type in all cases: cell-based, human
NF-κB = NF-κB localization by immunostaining after LPS stimulation, two-dimensional three-cell-type co-culture of astrocytes, neurons and microglia; conditions: LPS 100 ng/mL, no R-7050
Experimental: Matrigel basement membrane matrix (Corning, 356234) diluted 120-fold with DMEM/F12 (Life technologies, 11320-033) was added to a 96-well plate at 65 μL/well and allowed to stand at 4° C. After 24 hours, the culture medium was replaced with a progenitor cell culture medium and used.
Astrocyte precursor cells (XCell Science, XCS-AP-001-1V) were seeded in a 96-well plate at a density of 5×10^4 cells/well and cultured under the conditions of 37° C. and 5% CO2. The next day, the culture medium was replaced with the differentiation-inducing culture medium and further cultured for 5 days to differentiate into astrocytes.
The neurons were produced by forcing expression of the Ngn2 gene from iPS cells (WO2014/148646A; and Zhang Y, et al., Neuron, 78:785-98, 2013), and the cells that had been frozen and stored were used. The cells that had been frozen and stored were thawed in a warm bath at 37° C., and after thawing, the cells were added to the co-culture medium and centrifuged at 600×g at room temperature for 5 minutes. After centrifugation, the supernatant was removed, the cells were suspended in 1 mL of the co-culture medium, and the number of cells was counted.
As the microglia, iPS cell-derived microglia (iCell (registered trademark) Microglia, FCDI, C1110) were used. The cells that had been frozen and stored were thawed in a warm bath at 37° C., and after thawing, the cells were added to the co-culture medium and centrifuged at 600×g at room temperature for 5 minutes. After centrifugation, the supernatant was removed, the cells were suspended in 1 mL of the co-culture medium, and the number of cells was counted.
The neurons and the microglia were mixed in a ratio of 3:1 and seeded on the astrocytes at 4×10^4 cells/well. The cells were cultured under the conditions of 37° C. and 5% CO2, and half of the culture medium was replaced three times a week.
(§1) Microglia were specifically stimulated by adding LPS (FUJIFILM Wako Pure Chemical Corporation, 124-05151) at 100 ng/mL to the two-dimensional co-culture that had been cultured for 4 weeks. The cells were fixed by treating, for 30 minutes, with a formaldehyde solution (FUJIFILM Wako Pure Chemical Corporation, 061-00416) diluted 10-fold with PBS(−) (FUJIFILM Wako Pure Chemical Corporation, 166-23555) without treatment, and at 0.5 hours, 1 hour, 3 hours, 6 hours, and 24 hours after the treatment.
In addition, in the two-dimensional co-culture that had been cultured for 19 days, LPS (FUJIFILM Wako Pure Chemical Corporation, 124-05151) was added at 100 ng/ml and R-7050 (Cayman Chemical Company, 16870), which is a TNFR1 inhibitor, was added at 10 μmol/L, and the effect of TNF-α on the intercellular interaction induced by LPS stimulation was evaluated. The cells were fixed by treating, for 30 minutes, with a formaldehyde solution (FUJIFILM Wako Pure Chemical Corporation, 061-00416) diluted 10-fold with PBS (−) (FUJIFILM Wako Pure Chemical Corporation, 166-23555) without treatment, and at 0.5 hours, 1 hour, 3 hours, 6 hours, and 24 hours after the treatment.
The fixed cells were washed with PBS (−), and blocking and permeabilization were performed by treating with a solution (1% BSA/0.2% Triton X-100) in which BSA (Sigma-Aldrich, A4161) and Triton (registered trademark) X-100 (BioVision, 2104-100) were diluted to 1% and 0.2% with PBS (−) for 30 minutes. […]

STAT1 [1] = test: STAT1 localization by immunostaining after LPS stimulation, three-cell-type co-culture of neurons, astrocytes and microglia; conditions: LPS 100 ng/mL
Experimental: as §1, with “treatment. […]” for “treatment.”
The next day, the cells were washed with PBS (−), then as a secondary antibody reaction, treated with Donkey anti-goat Alexa Fluor (registered trademark) 488 (Thermo Fisher Scientific, A11055) diluted 1000-fold, Donkey anti-rabbit Alexa Fluor (registered trademark) 594 (Thermo Fisher Scientific, A32754) diluted 1000-fold, and Hoechst (registered trademark) 33342 (Dojindo, 346-07951) diluted 1000-fold as a secondary antibody reaction, and allowed to stand at room temperature for 60 minutes. After washing with PBS (−), the cells were imaged with a fluorescence microscope (Nikon, ECLIPSE Ti) to acquire an image. […]

STAT1 [2] = test: STAT1 localization after LPS stimulation, two-cell-type co-culture of nerve and astrocytes; conditions: co-culture without microglia, all time points

lipopolysaccharide [LPS] was tested, and the “nuclear translocation of NF-κB” value (NF-κB; 0.5 hours and 1 hours after the LPS treatment) was “only some cells”, the “nuclear translocation of NF-κB” value (NF-κB; 3 hours and 6 hours after the LPS treatment) was “many cells” and the “STAT1 localized in the nucleus” value (STAT1 [1]; 1 hour and 3 hours after the LPS stimulation) was “some cells”. The “STAT1 localized in the nucleus” value (STAT1 [1]; 6 hours after the stimulation) was “many cells” and the “nuclear translocation of STAT1” value (STAT1 [2]) was “not observed at any time”.
